Measured values: the supplement of paper PMC5908809

Legend:
Test in all cases: relative IC50 (inflection point of fitted viability curve, relative to fitted max inhibition); higher = less sensitive
Settings in all cases: 72 h
[1] = system: IMC-1 (IL-2 20 ng/mL)
Protocol: (§1)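 Drug sensitivity and resistance testing: 5 concentrations over a 10,000-fold range, 72 h at 37 °C, viability by CellTiter-Glo normalised to DMSO and benzethonium chloride controls. IC50 is the inflection point of a logistic fit (min fixed at 0, max fitted), so it is relative to the fitted maximal inhibition. Kept only where fitted max inhibition is at least 50%.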

[2] = system: NKL (IL-2 2.5 ng/mL)
Protocol: as §1

[3] = system: KHYG-1 (IL-2 2.5 ng/mL)
Protocol: as §1

[4] = system: NK-92 (IL-2 2.5 ng/mL)
Protocol: as §1

[5] = system: SNK-6 (IL-2 2.5 ng/mL)
Protocol: as §1

[6] = system: DERL-7 (IL-2 2.5 ng/mL)
Protocol: as §1

[7] = system: NK-YS (IL-2 2.5 ng/mL)
Protocol: as §1

[8] = system: KAI3 (IL-2 2.5 ng/mL)
Protocol: as §1

[9] = system: YT (IL-2 2.5 ng/mL)
Protocol: as §1

[10] = system: normal primary NK cells, pool 1 (3 donors), resting (IL-2 0 ng/mL)
Protocol: as §1

Row | Structure (SMILES) | relative IC50 [1] | relative IC50 [2] | relative IC50 [3] | relative IC50 [4] | relative IC50 [5] | relative IC50 [6] | relative IC50 [7] | relative IC50 [8] | relative IC50 [9] | relative IC50 [10]
1 | NC(=O)c1cccc2cn(-c3ccc([C@@H]4CCCNC4)cc3)nc12 [Niraparib] | 1.8 µM | 0.219 µM | 2.23 µM | 1.92 µM | 3.14 µM | 2.17 µM | 1.49 µM | 1.58 µM |  | 
2 | O=C(c1cc(Cc2n[nH]c(=O)c3ccccc23)ccc1F)N1CCN(C(=O)C2CC2)CC1 [Olaparib] | 1.61 µM | 0.237 µM | 2.02 µM | 1.56 µM | 1.67 µM |  | 1.62 µM | 1.26 µM |  | 
3 | CCn1nnc2c(N3CCOCC3)nc(-c3ccc(NC(=O)Nc4ccc(C(=O)N5CCN(C)CC5)cc4)cc3)nc21 [PKI-402] |  | 0.0971 µM | 0.316 µM | 0.428 µM | 0.21 µM | 0.0891 µM | 0.154 µM | 0.0909 µM | 0.208 µM | 
4 | COc1ccc(COc2cc3oc(=O)c4cc(C(C)O)ccc4c3cc2OC)cc1 (configuration not stated) [Palomid-529] |  |  | 1.96 µM | 1.28 µM |  |  |  |  |  | 
5 | C/C(=C\c1csc(C)n1)[C@@H]1C[C@@H]2O[C@]2(C)CCC[C@H](C)[C@H](O)[C@@H](C)C(=O)C(C)(C)[C@@H](O)CC(=O)O1 [Patupilone] | 0.00336 µM | 0.0124 µM | 0.0152 µM | 0.0068 µM | 0.00261 µM | 0.00274 µM | 0.0117 µM | 0.00677 µM | 0.00842 µM | 
6 | O=C(CCBr)N1CCN(C(=O)CCBr)CC1 [Pipobroman] |  |  |  |  | > 10 µM |  |  |  |  | 
7 | CCNC(=O)Nc1ccc(-c2nc3c(c(N4CCOC[C@@H]4C)n2)CCN(C2COC2)C3)cc1 [RG-7603] | > 2.5 µM | 0.185 µM |  |  |  | 0.156 µM |  |  |  | 
8 | Nc1cc(F)ccc1NC(=O)/C=C/c1cnn(C/C=C/c2ccccc2)c1 [RGFP966] |  | 1.35 µM |  | 1.68 µM | 1.46 µM | 1.53 µM |  | 1.94 µM |  | 
9 | CNCc1ccc(-c2[nH]c3cc(F)cc4c3c2CCNC4=O)cc1 [Rucaparib] |  | 0.438 µM |  |  |  |  | 2 µM |  |  | 
10 | CC(C)N(CCCNC(=O)Nc1ccc(C(C)(C)C)cc1)C[C@H]1O[C@@H](n2cc(Br)c3c(N)ncnc32)[C@H](O)[C@@H]1O [SGC0946] |  |  |  |  |  |  |  | 2.54 µM |  | 3.66 µM
11 | Cn1cc(-c2ccc3nnc(Sc4ccc5ncccc5c4)n3n2)cn1 [SGX-523] | > 5 µM |  | > 5 µM |  |  |  |  |  |  | 
12 | CC[C@H](CO)Nc1nc(NCc2ccccc2)c2ncn(C(C)C)c2n1 [Seliciclib] |  |  |  |  |  |  |  | 2.38 µM | 1.85 µM | 
13 | CO[C@H]1C[C@@H]2CC[C@@H](C)[C@@](O)(O2)C(=O)C(=O)N2CCCC[C@H]2C(=O)O[C@H]([C@H](C)C[C@@H]2CC[C@@H](O)[C@H](OC)C2)CC(=O)[C@H](C)/C=C(\C)[C@@H](O)[C@@H](OC)C(=O)[C@H](C)C[C@H](C)/C=C/C=C/C=C/1C [Sirolimus] |  | 0.0003 µM | 0.00655 µM |  | 0.0008 µM | 0.005 µM | 0.00101 µM | 0.00241 µM |  | 
14 | Cc1c(C(=O)Nc2ccc(N3C[C@@H](C)O[C@@H](C)C3)nc2)cccc1-c1ccc(OC(F)(F)F)cc1 [Sonidegib] | 2.25 µM |  |  | 1.15 µM |  |  |  |  |  | 
15 | COc1cc(C(=O)NC2CCN(C)CC2)c(F)cc1Nc1ncc2c(n1)N(C1CCCC1)CC(F)(F)C(=O)N2C [TAK-960] |  |  |  |  |  | > 2.5 µM |  |  |  | 
16 | Nc1nc(NC2CC2)cc(-c2cccc(Cl)c2Cl)n1 [TH588] | 6.38 µM | 2.18 µM | 2.05 µM | 1.55 µM | 0.809 µM | 7.9 µM | 0.854 µM | 1.73 µM | 2.12 µM | 
17 | Clc1ccccc1C(c1ccccc1)(c1ccccc1)n1cccn1 [TRAM-34] |  |  |  |  |  |  |  |  |  | > 1 µM
18 | C[C@@H]1CN(Cc2ccc(F)cc2)[C@@H](C)CN1C(=O)c1cc2c(C(=O)C(=O)N(C)C)cn(C)c2cc1Cl [Talmapimod] |  |  | > 10 µM |  | > 10 µM |  |  |  |  | 
19 | O[C@H]1CC[C@H](Nc2ncc3nc(Nc4c(F)cc(F)cc4F)n([C@H]4CCOC4)c3n2)CC1 [Tanzisertib] |  |  |  |  | > 10 µM |  |  |  |  | 
20 | Cn1nnc2c(C(N)=O)ncn2c1=O [Temozolomide] | 15.8 µM | 25.7 µM |  |  | 1.61 µM |  |  |  |  | > 100 µM
21 | Cc1cc(Nc2cc(N3CCN(C)CC3)nc(Sc3ccc(NC(=O)C4CC4)cc3)n2)n[nH]1 [Tozasertib] | 0.283 µM |  | 0.193 µM | 0.636 µM | 0.0502 µM | 0.0463 µM | 0.051 µM | 0.349 µM |  | 
22 | O=c1ncn2nc(Sc3ccc(F)cc3F)ccc2c1-c1c(Cl)cccc1Cl [VX 745] |  | 0.719 µM |  |  |  |  |  | 0.779 µM |  | 
23 | CCc1c(C(=O)C(N)=O)c2c(OCC(=O)O)cccc2n1Cc1ccccc1 [Varespladib] | > 10 µM |  |  |  |  |  |  |  |  | 
24 | C[C@@H]1COC(Nc2ccc3ncnc(Nc4ccc(OCc5nccs5)c(Cl)c4)c3c2)=N1 [Varlitinib] |  |  |  |  |  |  |  |  |  | > 10 µM
25 | CC[C@@H]1C(=O)N(C)c2cnc(Nc3ccc(C(=O)N[C@H]4CC[C@H](N5CCN(CC6CC6)CC5)CC4)cc3OC)nc2N1C(C)C [Volasertib] | 0.03 µM | 0.0362 µM | 0.0283 µM | 0.0126 µM | 0.00644 µM | 0.0196 µM | 0.0243 µM | 0.0265 µM | 0.029 µM | 
